Patent US12527817B2, “Manufacturing of selenium disulfide compositions” (Azura Ophthalmics Ltd., priority 2020, dated 2026)

Test: Particle size analysis under a microscope (400x magnification)
Type: physicochemical
Details: mixing liquid petrolatum at 60° C. with micronized SeS2, 400× microscope magnification
Method: FIG. 4 illustrates SeS2 formulation obtained mixing liquid petrolatum at a temperature of 60° C. with micronized SeS2 at 400× microscope magnification showing the presence of SeS2 particles larger than 25 microns.
FIG. 3 illustrates a 1% SeS2 (w/w) formulation obtained using the low temperature process.
The active ingredient was SeS2, wherein the particle size distribution D90 is less than 10 microns. The base medium was USP grade petrolatum. A reaction vessel capable of accepting a high shear mixing apparatus was charged with the USP grade petrolatum. In order to create uniform particles distribution in the petrolatum, high shear mixing was applied to disperse the particles. Addition of the active ingredients to the bulk while the whole bulk is agitated is essential in order to properly disperse the active ingredient, the high shear head was used to break the agglomerates to primary particles creating a uniform and homogeneous paste.

S=[Se]=S [SeS2, selenium disulfide]
SeS2 particle size: over 25 microns
